For 18 compounds, IC50 and Ki results are on record in ChEMBL document CHEMBL1133876, “alpha-Ketocarboxylic acid-based inhibitors of protein tyrosine phosphatases” (Bioorg Med Chem Lett, 2001).

In assay [1] the target is Tyrosine-protein phosphatase YopH (Yersinia enterocolitica) (UniProt P15273). Nature of the assay: Inhibitory activity against Yersinia Protein-tyrosine phosphatase YopH.
The target is the same in assay [2]. The assay is described as above. This is another data set of the same source.

Tyrosine-protein phosphatase YopH (Yersinia enterocolitica), sequence (P15273 whole entry, looked up): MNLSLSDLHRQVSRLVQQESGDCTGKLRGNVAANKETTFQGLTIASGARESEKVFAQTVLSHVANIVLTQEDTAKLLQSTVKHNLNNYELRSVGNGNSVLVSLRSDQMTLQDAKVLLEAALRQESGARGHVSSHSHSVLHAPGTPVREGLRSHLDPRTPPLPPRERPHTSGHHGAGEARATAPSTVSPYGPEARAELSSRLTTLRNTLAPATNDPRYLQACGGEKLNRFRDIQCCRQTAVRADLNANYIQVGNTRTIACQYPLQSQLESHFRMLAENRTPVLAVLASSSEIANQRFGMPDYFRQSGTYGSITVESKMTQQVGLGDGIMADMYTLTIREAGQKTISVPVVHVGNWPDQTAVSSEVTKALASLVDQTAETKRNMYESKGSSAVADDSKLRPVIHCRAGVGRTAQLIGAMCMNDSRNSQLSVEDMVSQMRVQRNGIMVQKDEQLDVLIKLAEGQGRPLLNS

In general, IC50 refers to the concentration needed to halve the response being measured. For `O=C(O)C(O)c1ccco1` (stereo not drawn), the half-maximal inhibitory concentration (IC50) in assay [1] was 0.027 mM.
Compound `O=C(O)C(=O)c1ccc([N+](=O)[O-])cc1` yielded an IC50 in assay [1] of 2.7 mM.
In assay [1], `O=C(O)C(=O)c1ccc2ccccc2c1` gave a half-inhibitory concentration (IC50) of 0.19 mM.
The same measure, in the same setting: the same measure for `COC(=O)c1ccc(C(=O)C(=O)O)cc1`: 2.3 mM; for `O=C(O)C(=O)c1c(F)c(F)c(F)c(F)c1F`: 0.79 mM.
Compound `O=C(O)Cc1ccc2ccccc2c1` yielded an IC50 in assay [1] of 3.5 mM.
As for `O=C(O)[C@H](O)c1ccccc1`, the 50% inhibitory concentration (IC50) in assay [1] stood at 5.5 mM.
Same read-out and setting: as for `O=C(O)C(O)c1ccc2ccccc2c1` (stereo not drawn), the figure is 3.3 mM.
Turning to `COc1ccc(C(=O)C(=O)O)cc1`, half-maximal inhibition in assay [1] (IC50) was put at 0.15 mM.
Compound `O=C(O)C(=O)c1c[nH]c2ccccc12` gave an IC50 in assay [1] of 0.39 mM.
As to `COc1ccc(C(O)C(=O)O)cc1` (stereo not drawn), it took 5.7 mM to reach half-maximal inhibition in assay [1] (IC50).
As a reminder, the Ki is the equilibrium dissociation constant of an inhibitor or competing ligand from its target. In assay [2], `O=P(O)(O)C(F)(F)c1ccc2ccccc2c1` came in with a Ki of 0.179 mM.
`O=C(O)C(=O)c1ccccc1` [BENZOYL FORMIC ACID] gave a 50% inhibitory concentration (IC50) in assay [1] of 2.7 mM.
In assay [1], `O=C(O)C(=O)c1cccs1` registered a 50% inhibitory concentration (IC50) of 0.95 mM.
`O=C(O)C(=O)c1ccccc1C(=O)O` displayed an IC50 in assay [1] of 1.5 mM.
In assay [2], `O=C(O)C(=O)c1ccco1` had a Ki of 0.079 mM.
As for `COc1ccc(C(=O)C(=O)O)cc1OC`, 1.7 mM corresponded to half-maximal inhibition in assay [1] (IC50).
Regarding `O=C(O)[C@@H](O)c1ccccc1`, in assay [1], the IC50 stood at 4.9 mM.
